{
  "source": "paper PMC10337138",
  "about": "(Acta Neuropathologica Communications, 2023)",
  "settings_in_all_cases": "1 mM ATP; inhibitor",
  "key": {"NEK1": {"biological_target": "NEK1 (Homo sapiens, UniProt Q96PY6)", "method": "(§1) Kinase selectivity panel Kinome profiling was conducted by AssayQuant Technologies (Marlboro, MA) using Sox chromophore technology and Sox-based peptide substrates developed for human kinases in a 384-well format. Compounds were tested at 1 µM in the presence of 1 mM ATP."}, "LATS2": {"biological_target": "LATS2 (Homo sapiens, UniProt Q9NRM7)", "method": "as §1"}, "TSSK1": {"biological_target": "T1, TSSK1 (Homo sapiens, UniProt Q9BXA7)", "T1 construct": "gene TSSK1B", "T1 sequence (Q9BXA7 whole entry)": "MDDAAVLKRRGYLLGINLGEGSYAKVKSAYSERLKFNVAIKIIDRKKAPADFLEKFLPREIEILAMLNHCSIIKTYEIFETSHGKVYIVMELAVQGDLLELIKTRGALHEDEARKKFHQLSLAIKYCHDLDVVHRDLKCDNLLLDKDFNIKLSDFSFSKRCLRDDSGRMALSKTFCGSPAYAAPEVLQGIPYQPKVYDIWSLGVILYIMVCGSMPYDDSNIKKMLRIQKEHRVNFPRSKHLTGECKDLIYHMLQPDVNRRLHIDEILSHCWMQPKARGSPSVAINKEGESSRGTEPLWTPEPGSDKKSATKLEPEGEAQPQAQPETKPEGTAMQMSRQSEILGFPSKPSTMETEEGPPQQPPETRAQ", "method": "as §1"}, "PDHK3": {"biological_target": "T2, PDHK3 (Homo sapiens, UniProt Q15120)", "T2 construct": "gene PDK3", "method": "as §1"}, "KIT": {"biological_target": "KIT (Homo sapiens, UniProt P10721)", "method": "as §1"}, "CDK5/P35": {"biological_target": "CDK5/P35 (Homo sapiens, UniProt Q00535)", "method": "as §1"}, "PDHK2": {"biological_target": "T3, PDHK2 (Homo sapiens, UniProt Q15119)", "T3 construct": "gene PDK2", "method": "as §1"}, "RPS6KA4/MSK2": {"biological_target": "RPS6KA4/MSK2 (Homo sapiens, UniProt O75676)", "method": "as §1"}, "PLK2": {"biological_target": "PLK2 (Homo sapiens, UniProt Q9NYY3)", "method": "as §1"}, "CDK5/P25": {"biological_target": "CDK5/P25 (Homo sapiens, UniProt Q00535)", "method": "as §1"}, "CSNK1G2/CK1G2": {"biological_target": "CSNK1G2/CK1G2 (Homo sapiens, UniProt P78368)", "method": "as §1"}, "HIPK3": {"biological_target": "HIPK3 (Homo sapiens, UniProt Q9H422)", "sequence (Q9H422 whole entry)": "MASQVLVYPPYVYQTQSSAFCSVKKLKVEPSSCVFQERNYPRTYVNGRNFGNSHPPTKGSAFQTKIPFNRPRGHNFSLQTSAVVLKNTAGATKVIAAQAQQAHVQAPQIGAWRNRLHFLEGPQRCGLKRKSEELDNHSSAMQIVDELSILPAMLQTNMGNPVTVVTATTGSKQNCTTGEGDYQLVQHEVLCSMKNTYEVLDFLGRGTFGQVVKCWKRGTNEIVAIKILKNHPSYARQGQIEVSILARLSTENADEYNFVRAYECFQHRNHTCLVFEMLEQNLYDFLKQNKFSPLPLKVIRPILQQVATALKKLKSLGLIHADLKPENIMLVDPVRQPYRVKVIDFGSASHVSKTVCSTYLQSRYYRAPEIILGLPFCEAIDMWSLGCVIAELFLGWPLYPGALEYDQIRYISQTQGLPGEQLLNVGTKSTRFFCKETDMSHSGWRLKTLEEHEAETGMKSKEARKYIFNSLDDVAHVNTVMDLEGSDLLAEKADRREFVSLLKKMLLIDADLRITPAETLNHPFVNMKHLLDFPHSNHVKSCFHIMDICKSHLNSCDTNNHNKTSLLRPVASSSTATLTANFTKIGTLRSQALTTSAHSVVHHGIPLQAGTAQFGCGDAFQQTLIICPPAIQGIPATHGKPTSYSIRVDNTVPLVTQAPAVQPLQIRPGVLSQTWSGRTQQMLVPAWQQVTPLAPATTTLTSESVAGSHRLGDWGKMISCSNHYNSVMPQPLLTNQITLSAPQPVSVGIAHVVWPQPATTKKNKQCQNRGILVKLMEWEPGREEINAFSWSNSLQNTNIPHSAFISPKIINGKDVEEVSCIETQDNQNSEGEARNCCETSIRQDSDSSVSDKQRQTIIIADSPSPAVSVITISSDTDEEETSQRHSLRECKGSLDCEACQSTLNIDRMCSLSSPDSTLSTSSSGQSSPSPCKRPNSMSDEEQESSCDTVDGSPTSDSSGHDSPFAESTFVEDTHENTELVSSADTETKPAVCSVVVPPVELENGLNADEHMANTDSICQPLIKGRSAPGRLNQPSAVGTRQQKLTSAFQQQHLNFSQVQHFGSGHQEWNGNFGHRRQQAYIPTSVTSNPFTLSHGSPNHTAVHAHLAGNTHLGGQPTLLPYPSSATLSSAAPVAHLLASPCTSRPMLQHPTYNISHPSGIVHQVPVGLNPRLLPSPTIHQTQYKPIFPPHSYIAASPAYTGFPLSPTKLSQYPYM", "method": "as §1"}, "AKT1": {"biological_target": "AKT1 (Homo sapiens, UniProt P31749)", "sequence (P31749 whole entry)": "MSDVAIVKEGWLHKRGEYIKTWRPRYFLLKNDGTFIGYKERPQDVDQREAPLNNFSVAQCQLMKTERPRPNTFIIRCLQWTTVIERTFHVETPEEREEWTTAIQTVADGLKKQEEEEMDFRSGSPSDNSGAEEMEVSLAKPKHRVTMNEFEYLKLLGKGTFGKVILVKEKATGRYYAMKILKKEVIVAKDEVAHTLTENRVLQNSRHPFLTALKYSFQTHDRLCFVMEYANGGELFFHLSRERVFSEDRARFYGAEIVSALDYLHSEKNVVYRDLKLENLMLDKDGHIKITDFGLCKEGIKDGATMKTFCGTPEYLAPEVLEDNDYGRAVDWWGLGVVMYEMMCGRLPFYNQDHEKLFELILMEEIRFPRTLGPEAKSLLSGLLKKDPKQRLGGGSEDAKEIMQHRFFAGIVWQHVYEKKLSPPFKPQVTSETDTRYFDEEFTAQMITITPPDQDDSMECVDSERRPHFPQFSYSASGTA", "method": "as §1"}, "ALK": {"biological_target": "ALK (Homo sapiens, UniProt Q9UM73)", "method": "as §1"}, "MAP4K4/HGK": {"biological_target": "MAP4K4/HGK (Homo sapiens, UniProt O95819)", "method": "as §1"}, "MAP3K8": {"biological_target": "MAP3K8 (Homo sapiens, UniProt P41279)", "method": "as §1"}, "CHEK2/CHK2": {"biological_target": "CHEK2/CHK2 (Homo sapiens, UniProt O96017)", "method": "as §1"}, "CDK4/D3": {"biological_target": "CDK4/D3 (Homo sapiens, UniProt P11802)", "method": "as §1"}, "CSNK1D/CK1D": {"biological_target": "CSNK1D/CK1D (Homo sapiens, UniProt P48730)", "method": "as §1"}, "FES": {"biological_target": "FES (Homo sapiens, UniProt P07332)", "method": "as §1"}, "EPHA4": {"biological_target": "EPHA4 (Homo sapiens, UniProt P54764)", "method": "as §1"}, "MYLK4": {"biological_target": "MYLK4 (Homo sapiens, UniProt Q86YV6)", "method": "as §1"}, "ROCK1": {"biological_target": "ROCK1 (Homo sapiens, UniProt Q13464)", "method": "as §1"}, "PRKD1": {"biological_target": "PRKD1 (Homo sapiens, UniProt Q15139)", "method": "as §1"}, "CDK1/E1": {"biological_target": "CDK1/E1 (Homo sapiens, UniProt P06493)", "sequence (P24864 whole entry)": "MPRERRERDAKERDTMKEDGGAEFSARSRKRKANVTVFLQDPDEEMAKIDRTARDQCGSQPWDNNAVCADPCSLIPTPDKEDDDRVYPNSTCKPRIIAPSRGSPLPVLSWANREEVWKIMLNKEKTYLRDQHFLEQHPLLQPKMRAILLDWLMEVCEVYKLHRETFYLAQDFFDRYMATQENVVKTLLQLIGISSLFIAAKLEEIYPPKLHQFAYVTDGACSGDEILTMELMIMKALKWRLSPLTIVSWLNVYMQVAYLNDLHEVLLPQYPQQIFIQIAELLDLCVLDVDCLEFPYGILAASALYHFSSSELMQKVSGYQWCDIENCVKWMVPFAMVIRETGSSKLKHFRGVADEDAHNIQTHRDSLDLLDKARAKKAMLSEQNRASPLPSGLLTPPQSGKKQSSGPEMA", "sequence (P06493 whole entry)": "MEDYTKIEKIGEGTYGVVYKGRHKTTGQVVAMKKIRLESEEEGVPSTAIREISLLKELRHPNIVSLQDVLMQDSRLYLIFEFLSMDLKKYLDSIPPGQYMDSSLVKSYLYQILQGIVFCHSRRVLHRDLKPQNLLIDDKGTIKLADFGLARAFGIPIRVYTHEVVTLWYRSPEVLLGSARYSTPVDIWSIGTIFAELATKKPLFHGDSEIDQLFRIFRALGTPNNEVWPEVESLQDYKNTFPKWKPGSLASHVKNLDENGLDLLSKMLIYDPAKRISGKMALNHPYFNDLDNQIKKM", "method": "as §1"}, "HIPK2": {"biological_target": "HIPK2 (Homo sapiens, UniProt Q9H2X6)", "method": "as §1"}, "PDGFRA": {"biological_target": "PDGFRA (Homo sapiens, UniProt P16234)", "sequence (P16234 whole entry)": "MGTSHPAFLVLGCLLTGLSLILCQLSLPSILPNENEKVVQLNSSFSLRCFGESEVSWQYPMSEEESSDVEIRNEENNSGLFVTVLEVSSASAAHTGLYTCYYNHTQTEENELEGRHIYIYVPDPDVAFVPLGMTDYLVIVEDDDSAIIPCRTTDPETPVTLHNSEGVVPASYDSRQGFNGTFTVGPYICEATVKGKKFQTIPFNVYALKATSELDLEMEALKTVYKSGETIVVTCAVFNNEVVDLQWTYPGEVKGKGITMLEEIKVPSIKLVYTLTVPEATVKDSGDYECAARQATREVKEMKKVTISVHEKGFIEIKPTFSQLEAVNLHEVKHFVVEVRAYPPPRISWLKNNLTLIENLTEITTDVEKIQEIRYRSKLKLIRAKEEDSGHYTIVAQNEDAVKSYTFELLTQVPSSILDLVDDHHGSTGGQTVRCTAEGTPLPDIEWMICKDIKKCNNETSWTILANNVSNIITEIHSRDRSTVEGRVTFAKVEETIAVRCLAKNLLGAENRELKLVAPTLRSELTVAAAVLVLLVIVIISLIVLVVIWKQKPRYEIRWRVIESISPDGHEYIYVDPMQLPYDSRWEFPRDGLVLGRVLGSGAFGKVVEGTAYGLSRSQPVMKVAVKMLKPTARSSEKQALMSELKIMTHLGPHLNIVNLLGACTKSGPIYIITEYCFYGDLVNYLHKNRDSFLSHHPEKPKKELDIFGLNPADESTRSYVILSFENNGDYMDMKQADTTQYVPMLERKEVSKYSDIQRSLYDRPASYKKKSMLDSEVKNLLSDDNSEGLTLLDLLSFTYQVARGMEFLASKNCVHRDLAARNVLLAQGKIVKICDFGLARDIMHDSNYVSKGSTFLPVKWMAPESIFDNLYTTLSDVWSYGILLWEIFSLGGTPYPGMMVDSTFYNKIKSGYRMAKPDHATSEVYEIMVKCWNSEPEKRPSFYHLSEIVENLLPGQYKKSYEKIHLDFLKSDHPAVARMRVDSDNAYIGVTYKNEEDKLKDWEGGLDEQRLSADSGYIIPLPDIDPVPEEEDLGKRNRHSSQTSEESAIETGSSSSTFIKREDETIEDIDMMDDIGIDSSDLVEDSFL", "method": "as §1"}, "BRSK2": {"biological_target": "BRSK2 (Homo sapiens, UniProt Q8IWQ3)", "method": "as §1"}, "GSK3B": {"biological_target": "GSK3B (Homo sapiens, UniProt P49841)", "method": "as §1"}, "MAPKAPK2/MK2": {"biological_target": "MAPKAPK2/MK2 (Homo sapiens, UniProt P49137)", "method": "as §1"}, "MAP2K1/MEK1": {"biological_target": "MAP2K1/MEK1 (Homo sapiens, UniProt Q02750)", "method": "as §1"}, "CSNK2A2/CK2A2": {"biological_target": "CSNK2A2/CK2A2 (Homo sapiens, UniProt P19784)", "sequence (P19784 whole entry)": "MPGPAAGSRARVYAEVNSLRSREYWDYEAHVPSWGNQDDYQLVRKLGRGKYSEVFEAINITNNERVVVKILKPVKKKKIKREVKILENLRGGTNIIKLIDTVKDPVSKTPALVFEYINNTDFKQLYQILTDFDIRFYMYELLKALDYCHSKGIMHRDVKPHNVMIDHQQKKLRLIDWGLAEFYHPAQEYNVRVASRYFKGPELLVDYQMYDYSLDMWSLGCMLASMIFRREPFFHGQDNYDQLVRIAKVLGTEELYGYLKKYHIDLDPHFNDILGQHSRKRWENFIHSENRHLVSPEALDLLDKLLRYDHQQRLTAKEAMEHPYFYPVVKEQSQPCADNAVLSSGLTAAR", "method": "as §1"}, "CAMK2A": {"biological_target": "CAMK2A (Homo sapiens, UniProt Q9UQM7)", "method": "as §1"}, "NTRK3/TRKC": {"biological_target": "NTRK3/TRKC (Homo sapiens, UniProt Q16288)", "sequence (Q16288 whole entry)": "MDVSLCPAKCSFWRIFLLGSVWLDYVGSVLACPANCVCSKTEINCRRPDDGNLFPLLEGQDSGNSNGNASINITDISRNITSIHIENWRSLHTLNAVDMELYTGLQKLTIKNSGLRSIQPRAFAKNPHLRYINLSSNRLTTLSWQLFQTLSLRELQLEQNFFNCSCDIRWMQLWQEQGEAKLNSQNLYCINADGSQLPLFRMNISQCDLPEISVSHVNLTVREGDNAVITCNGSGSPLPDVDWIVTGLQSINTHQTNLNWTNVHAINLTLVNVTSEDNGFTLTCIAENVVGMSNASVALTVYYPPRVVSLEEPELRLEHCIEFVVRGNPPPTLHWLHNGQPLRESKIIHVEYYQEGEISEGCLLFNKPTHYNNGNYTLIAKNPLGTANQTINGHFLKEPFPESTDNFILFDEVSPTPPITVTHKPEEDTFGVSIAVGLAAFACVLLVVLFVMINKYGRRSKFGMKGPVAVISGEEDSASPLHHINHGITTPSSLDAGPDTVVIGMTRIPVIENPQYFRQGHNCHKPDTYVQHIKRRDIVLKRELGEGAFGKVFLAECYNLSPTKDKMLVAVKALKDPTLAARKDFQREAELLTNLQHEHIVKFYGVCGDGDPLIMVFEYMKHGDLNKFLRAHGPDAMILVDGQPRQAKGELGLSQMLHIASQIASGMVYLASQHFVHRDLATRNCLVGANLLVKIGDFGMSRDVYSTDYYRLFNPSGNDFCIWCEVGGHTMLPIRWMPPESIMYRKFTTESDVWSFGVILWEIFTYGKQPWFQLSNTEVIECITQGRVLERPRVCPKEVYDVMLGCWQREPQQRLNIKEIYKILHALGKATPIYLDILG", "method": "as §1"}, "DCLK2/DCAML2": {"biological_target": "DCLK2/DCAML2 (Homo sapiens, UniProt Q8N568)", "method": "as §1"}, "MAP3K7": {"biological_target": "MAP3K7 (Homo sapiens, UniProt O43318)", "method": "as §1"}, "FLT4": {"biological_target": "FLT4 (Homo sapiens, UniProt P35916)", "method": "as §1"}, "CDK9/K": {"biological_target": "CDK9/K (Homo sapiens, UniProt P50750)", "method": "as §1"}},
  "data": [
    {"compound": "C=CC(=O)N1CCC[C@@H](n2nc(-c3ccc(Oc4ccccc4)cc3)c3c(N)ncnc32)C1", "note": "[Ibrutinib]", "values": [
      {"measurement": "1 µM GBD00276 (ibrutinib), % inhibition", "setting": "NEK1", "result": -6.252, "unit": "%"},
      {"measurement": "1 µM GBD00276 (ibrutinib), % inhibition", "setting": "LATS2", "result": 10.92, "unit": "%"},
      {"measurement": "1 µM GBD00276 (ibrutinib), % inhibition", "setting": "TSSK1", "result": 5.621, "unit": "%"},
      {"measurement": "1 µM GBD00276 (ibrutinib), % inhibition", "setting": "PDHK3", "result": 2.509, "unit": "%"},
      {"measurement": "1 µM GBD00276 (ibrutinib), % inhibition", "setting": "KIT", "result": 2.778, "unit": "%"},
      {"measurement": "1 µM GBD00276 (ibrutinib), % inhibition", "setting": "CDK5/P35", "result": 2.273, "unit": "%"},
      {"measurement": "1 µM GBD00276 (ibrutinib), % inhibition", "setting": "PDHK2", "result": 7.038, "unit": "%"},
      {"measurement": "1 µM GBD00276 (ibrutinib), % inhibition", "setting": "RPS6KA4/MSK2", "result": 6.848, "unit": "%"},
      {"measurement": "1 µM GBD00276 (ibrutinib), % inhibition", "setting": "PLK2", "result": -1.576, "unit": "%"},
      {"measurement": "1 µM GBD00276 (ibrutinib), % inhibition", "setting": "CDK5/P25", "result": 18.4, "unit": "%"},
      {"measurement": "1 µM GBD00276 (ibrutinib), % inhibition", "setting": "CSNK1G2/CK1G2", "result": 17.59, "unit": "%"},
      {"measurement": "1 µM GBD00276 (ibrutinib), % inhibition", "setting": "HIPK3", "result": -0.6618, "unit": "%"},
      {"measurement": "1 µM GBD00276 (ibrutinib), % inhibition", "setting": "AKT1", "result": 16.85, "unit": "%"},
      {"measurement": "1 µM GBD00276 (ibrutinib), % inhibition", "setting": "ALK", "result": 3.723, "unit": "%"},
      {"measurement": "1 µM GBD00276 (ibrutinib), % inhibition", "setting": "MAP4K4/HGK", "result": -8.478, "unit": "%"},
      {"measurement": "1 µM GBD00276 (ibrutinib), % inhibition", "setting": "MAP3K8", "result": -11.27, "unit": "%"},
      {"measurement": "1 µM GBD00276 (ibrutinib), % inhibition", "setting": "CHEK2/CHK2", "result": -10.68, "unit": "%"},
      {"measurement": "1 µM GBD00276 (ibrutinib), % inhibition", "setting": "CDK4/D3", "result": 7.114, "unit": "%"},
      {"measurement": "1 µM GBD00276 (ibrutinib), % inhibition", "setting": "CSNK1D/CK1D", "result": 12.82, "unit": "%"},
      {"measurement": "1 µM GBD00276 (ibrutinib), % inhibition", "setting": "FES", "result": 7.857, "unit": "%"},
      {"measurement": "1 µM GBD00276 (ibrutinib), % inhibition", "setting": "EPHA4", "result": -4.922, "unit": "%"},
      {"measurement": "1 µM GBD00276 (ibrutinib), % inhibition", "setting": "MYLK4", "result": 6.189, "unit": "%"},
      {"measurement": "1 µM GBD00276 (ibrutinib), % inhibition", "setting": "ROCK1", "result": 3.894, "unit": "%"},
      {"measurement": "1 µM GBD00276 (ibrutinib), % inhibition", "setting": "PRKD1", "result": -11.81, "unit": "%"},
      {"measurement": "1 µM GBD00276 (ibrutinib), % inhibition", "setting": "CDK1/E1", "result": -2.236, "unit": "%"},
      {"measurement": "1 µM GBD00276 (ibrutinib), % inhibition", "setting": "HIPK2", "result": 1.01, "unit": "%"},
      {"measurement": "1 µM GBD00276 (ibrutinib), % inhibition", "setting": "PDGFRA", "result": 34.54, "unit": "%"},
      {"measurement": "1 µM GBD00276 (ibrutinib), % inhibition", "setting": "BRSK2", "result": -9.3, "unit": "%"},
      {"measurement": "1 µM GBD00276 (ibrutinib), % inhibition", "setting": "GSK3B", "result": 9.125, "unit": "%"},
      {"measurement": "1 µM GBD00276 (ibrutinib), % inhibition", "setting": "MAPKAPK2/MK2", "result": 8.023, "unit": "%"},
      {"measurement": "1 µM GBD00276 (ibrutinib), % inhibition", "setting": "MAP2K1/MEK1", "result": -19, "unit": "%"},
      {"measurement": "1 µM GBD00276 (ibrutinib), % inhibition", "setting": "CSNK2A2/CK2A2", "result": -24.31, "unit": "%"},
      {"measurement": "1 µM GBD00276 (ibrutinib), % inhibition", "setting": "CAMK2A", "result": 2.188, "unit": "%"},
      {"measurement": "1 µM GBD00276 (ibrutinib), % inhibition", "setting": "NTRK3/TRKC", "result": 9.419, "unit": "%"},
      {"measurement": "1 µM GBD00276 (ibrutinib), % inhibition", "setting": "DCLK2/DCAML2", "result": -15.45, "unit": "%"},
      {"measurement": "1 µM GBD00276 (ibrutinib), % inhibition", "setting": "MAP3K7", "result": -2.955, "unit": "%"},
      {"measurement": "1 µM GBD00276 (ibrutinib), % inhibition", "setting": "FLT4", "result": 38.81, "unit": "%"},
      {"measurement": "1 µM GBD00276 (ibrutinib), % inhibition", "setting": "CDK9/K", "result": -8.235, "unit": "%"}
    ]}
  ]
}
